In US10947197B2, “Synthesis of the radiolabeled prostate-specific membrane antigen (PSMA) inhibitor [18F]DCFPyL” (The Johns Hopkins University, priority 2016, dated 2021):

Legend:
Type in all cases: physicochemical
[1] = Retesting at radiotracer expiry: radiochemical purity (HPLC) after storage under ambient conditions; details: for Expiry radiochemical purity, %: ambient storage
Method: Using the same HPLC system described for the radiochemical identity test, an appropriate volume (50 μL) of [^18F]DCFPyL was injected at a quantity injected that avoids uncorrected dead-time loss (for main peak) in the radioactive detection system. The percent radiochemical purity of [^18F]DCFPyL was determined by dividing the radioactivity associated with the [^18F]DCFPyL peak by total activity assayed in the chromatogram multiplied by 100. The product met this acceptance specification if the radiochemical purity was greater than or equal to 95%. A sample QC chromatogram is shown in FIG. 7 (DCFPyL−RT=7.6 min., k′=8.7).

[2] = Retesting at radiotracer expiry: visual inspection (appearance); details: n = 3, specification: clear colorless solution, no visible particulate matter
Excerpt: Using remote handling equipment and appropriate radiation shielding (leaded glass), the vial containing the [^18F]DCFPyL product was visually inspected under bright light. The product met this acceptance specification if it was clear and colorless with no evidence of foreign matter.

[3] = Retesting at radiotracer expiry: pH by indicator paper; details: specification 4.5-8.5; for pH, expiry: average n = 3, 360 min after EOS
Excerpt: A drop of the [^18F]DCFPyL final product matrix was applied to pH indicator paper (ColorPhast-Indicator strip—pH 2-9; sensitivity of 0.3 to 0.5 units, EMD Chemicals Inc., Gibbstown, N.J.). The strip color was matched to an indicator chart. The product met this acceptance specification if the pH was between 4.5 and 8.5.

[4] = large-scale RFM batch, 4.5 GBq/mL (122 mCi/mL), added sodium ascorbate, 99.7% at EOS
[5] = RFM synthesis (head prints REM)

SMILES: O=C(O)CC[C@H](NC(=O)N[C@@H](CCCCNC(=O)c1ccc([18F])nc1)C(=O)O)C(=O)O [[^18F]DCFPyL, 2-(3-{1-carboxy-5-[(6-[^18F]fluoro-pyridine-3-carbonyl)-amino]-pentyl}-ureido)-pentanedioic acid]
- Expiry radiochemical purity, % ([1]; ELIXYS synthesis, average n = 3, expiry 360 min after EOS): 100%
- Expiry radiochemical purity, % ([1]; RFM synthesis (head prints REM), average n = 3, expiry 360 min after EOS): 100%
- QC acceptance specifications at the 6-hour expiry ([1]; highest product yield validation run, 1.6 GBq/mL (44 mCi/mL)): meet all QC acceptance specifications
- radiochemical purity 3 hours post EOS [1, 4]: 98.8%
- radiochemical purity 4 hours post EOS [1, 4]: 98.5%
- radiochemical purity 6 hours post EOS [1, 4]: 98.2%
- radiochemical purity at the 6-hour expiry ([1]; large-scale RFM batch, 5.7 GBq/mL (153 mCi/mL), no sodium ascorbate, 97.6% at EOS): 51.1%
- Expiry radiochemical purity, % ([1]; original first-in-human synthesis, average n = 3, expiry 240 min after EOS): 100%
- Appearance, 360 min after EOS ([2]; ELIXYS synthesis): Conforms
- Appearance, 360 min after EOS [2, 5]: Conforms
- Appearance, 240 min after EOS ([2]; original synthesis): Conforms
- pH, expiry ([3]; ELIXYS synthesis): 5
- pH, expiry [3, 5]: 5
- pH, initial ([3]; original synthesis, average n = 3, second row headed pH, initial, beside pH, expiry): 5
